pIC50: −log10 of the molar value.

In general, pIC50 refers to the IC50 on a negative log10 scale, so that one unit is a factor of ten.

The target in series [1] is COX-1/COX-2 (Homo sapiens) (UniProt P35354+P23219). Description: Selectivity ratio of IC50 for COX-2 in human whole blood to COX-1 in human whole blood. The series is classed as tissue-based.
Series [2] concerns the target T1, Prostaglandin G/H synthase 1 (Homo sapiens, UniProt P23219). Description: Inhibition of COX-1 in human whole blood assessed as inhibition of serum TXB2 level after 1 hr by radioimmunoassay.
Series [3] addresses T2, Prostaglandin G/H synthase 2 (Homo sapiens, UniProt P35354).
T2 sequence (P35354 whole entry): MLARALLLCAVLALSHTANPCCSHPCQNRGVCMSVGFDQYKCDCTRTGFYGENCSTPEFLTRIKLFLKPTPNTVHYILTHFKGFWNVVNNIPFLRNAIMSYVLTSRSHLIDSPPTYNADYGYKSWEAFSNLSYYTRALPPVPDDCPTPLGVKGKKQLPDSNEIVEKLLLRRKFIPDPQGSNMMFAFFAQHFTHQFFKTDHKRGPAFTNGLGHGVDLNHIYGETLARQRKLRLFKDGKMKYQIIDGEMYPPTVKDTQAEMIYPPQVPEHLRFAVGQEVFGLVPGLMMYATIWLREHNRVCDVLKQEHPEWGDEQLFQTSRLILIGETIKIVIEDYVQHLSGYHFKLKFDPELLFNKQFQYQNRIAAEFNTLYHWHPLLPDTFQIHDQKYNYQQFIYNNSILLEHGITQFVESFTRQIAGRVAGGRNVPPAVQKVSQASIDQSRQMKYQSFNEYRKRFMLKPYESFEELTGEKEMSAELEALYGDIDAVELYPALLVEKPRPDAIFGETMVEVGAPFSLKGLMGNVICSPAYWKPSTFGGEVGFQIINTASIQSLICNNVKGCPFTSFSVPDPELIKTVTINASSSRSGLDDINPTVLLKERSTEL
Nature of the series: Inhibition of COX-2 in human whole blood assessed as inhibition of LPS-induced plasma PGE2 level by radioimmunoassay.

Series [4] deals with T1, Prostaglandin G/H synthase 1. Nature of the series: Inhibition of COX-1 (unknown origin) in platelet rich plasma assessed as inhibition of collagen-induced TXB2 formation incubated for 5 mins prior to collagen challenge measured for 5 mins by aggregometric analysis.
For series [5] the target is unchanged. Nature of the series: Inhibition of COX-1 (unknown origin) in platelet rich plasma assessed as inhibition of arachidonic acid-induced TXB2 formation incubated for 5 mins prior to arachidonic acid challenge measured for 5 mins by aggregometric analysis.
A short description of series [6]: Binding affinity to human alpha1-acid glycoprotein by HPLC analysis relative to control. The format is ADME. The settings on record: pooled result: one value given for 2 cell lines, strains, targets or settings.

T1 sequence (P23219 whole entry): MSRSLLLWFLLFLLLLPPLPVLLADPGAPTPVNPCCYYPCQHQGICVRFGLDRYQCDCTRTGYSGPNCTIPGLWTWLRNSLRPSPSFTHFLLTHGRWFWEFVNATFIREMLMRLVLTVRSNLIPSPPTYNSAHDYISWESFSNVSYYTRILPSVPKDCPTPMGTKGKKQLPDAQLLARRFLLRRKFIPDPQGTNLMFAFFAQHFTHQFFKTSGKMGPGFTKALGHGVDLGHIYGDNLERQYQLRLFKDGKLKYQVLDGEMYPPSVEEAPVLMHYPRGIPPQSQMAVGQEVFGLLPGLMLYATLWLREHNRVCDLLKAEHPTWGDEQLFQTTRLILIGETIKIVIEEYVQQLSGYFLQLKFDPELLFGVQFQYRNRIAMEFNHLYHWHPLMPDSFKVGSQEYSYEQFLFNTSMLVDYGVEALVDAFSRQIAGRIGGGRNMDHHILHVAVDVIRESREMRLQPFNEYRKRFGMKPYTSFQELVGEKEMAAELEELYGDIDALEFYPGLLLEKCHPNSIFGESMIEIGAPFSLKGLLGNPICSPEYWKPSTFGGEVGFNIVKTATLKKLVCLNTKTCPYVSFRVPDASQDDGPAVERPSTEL
COX-1/COX-2 (Homo sapiens), sequence (P23219 whole entry, looked up, one chain of several): as the sequence (P23219 whole entry) above

For the molecule `COC(=O)c1onc(-c2ccc(Cl)o2)c1-c1ccccc1`, the Ratio IC50 in series [1] is above 5.21. Further, the results for the pIC50 in series [2] and in series [3] were 4.72 and below 4.00, respectively.

Turning to `O=C(OCCCO[N+](=O)[O-])c1onc(-c2ccc(Cl)o2)c1-c1ccccc1`, the pIC50 in series [2] and in series [3] was below 4.00 in each case.

For the molecule `COC(=O)c1c(-c2ccc(Cl)o2)noc1-c1ccccc1`, the Ratio IC50 in series [1] was above 5.75. The pIC50 in series [2] is 4.76; in series [3], below 4.00.

Turning to `O=C(O)c1c(-c2ccc(Cl)o2)noc1-c1ccccc1`, the pIC50 in series [2] and in series [3] was below 4.00 each time.

Take `CC(=O)/C(=C(\N)c1ccco1)c1ccccc1`: in series [1], the Ratio IC50 was above 2.7. The results for the pIC50 in series [2] and in series [3] were 4.43 and below 4.00, respectively.

As for `Cc1onc(C2CCCO2)c1-c1ccccc1` (stereo not drawn), the pIC50 in series [2] and in series [3] was below 4.00 throughout.

`O=C(OCCCN1CCOCC1)c1onc(-c2ccc(Cl)o2)c1-c1ccccc1`: the pIC50 in series [2] and in series [3] was below 4.00 in each case.

Consider `CC(=O)/C(=C(\N)c1ccc(Cl)o1)c1ccccc1`, for which the pIC50 in series [2] and in series [3] was below 4.00 throughout.

On to `Cc1onc(-c2ccc(Cl)o2)c1-c1ccccc1`, for which the pIC50 in series [4] is 4.73; in series [5], 4.92. Also, in series [6], the Activity is on record as 95.7%.

Consider `O=C(O)c1onc(-c2ccc(Cl)o2)c1-c1ccccc1`, for which the pIC50 in series [2] and in series [3] was below 4.00 each time.

Consider `OCc1onc(-c2ccc(Cl)o2)c1-c1ccccc1`, for which the Ratio IC50 in series [1] is above 23.8. Besides, in series [3], the pIC50 is below 4.00.

Take `Cc1onc(-c2ccc(Cl)o2)c1-c1ccccc1F`: the Ratio IC50 in series [1] was above 52.6.

Take `COC(=O)c1c(-c2ccccc2)noc1-c1ccccc1`: in series [1], the Ratio IC50 was above 5.79. Besides, the pIC50 in series [2] was 4.76; in series [3], below 4.00.

For `Cc1onc(-c2ccccc2Cl)c1-c1ccccc1`, the Ratio IC50 in series [1] was determined as 4.07. Further, the pIC50 in series [2] was 6.57; in series [3], 5.96.

Turning to `Cc1onc(-c2ccc(Cl)o2)c1-c1ccc(F)cc1`, the Ratio IC50 in series [1] is 9.05. Moreover, the pIC50 in series [3] was 4.76.

In the case of `Cc1onc(-c2cccc(Cl)c2)c1-c1ccccc1`, the Ratio IC50 in series [1] amounted to 0.21. Further, the pIC50 in series [2] is 5.89; in series [3], 6.57.

For `O=C(O)c1c(-c2ccccc2)noc1-c1ccccc1`, the pIC50 in series [2] and in series [3] was below 4.00 each time.

For the molecule `Cc1onc(-c2ccco2)c1-c1ccccc1`, the Ratio IC50 in series [1] came out at 9.29. The pIC50 in series [2] is 5.66; in series [3] it was 4.69.

For the origin of these results see ChEMBL document CHEMBL2380195 (J Med Chem, 2013).
